In US10188743B2, “Cytisine-linked isoflavonoid antineoplastic agents for the treatment of cancer” (UNIVERSITY OF KENTUCKY RESEARCH FOUNDATION, priority 2016, dated 2019):

Legend:
AMPK = AMPK activation (levels of phosphorylated AMPK, Western blotting); type: cell-based
Protocol: (§1) Biochemistry. Western blotting: Cells were lysed in the appropriate volume of lysis buffer (50 mM HEPES, 100 mM NaCl, 2 mM EDTA, 1% glycerol, 50 mM NaF, 1 mM Na3VO4, 1% Triton X-100, with protease inhibitors). The following antibodies were used: HSD17B4 (GeneTex, GTX103864), AMPK (Cell Signaling, 2532), pAMPK (Cell Signaling, 2535), ACC (Cell Signaling, 3676), pACC (Cell Signaling, 11818), p^70 (Cell Signaling, 2708), p-p^70 (Cell Signaling, 9914), S6 (Cell Signaling, 2217), pS6 (Cell Signaling, 4858), MCCA (GeneTex, GTX110062), tubulin (Hybridoma Bank, E7), Actin (Sigma, A1978), His-tag (BD Pharmingen, 552564).

[1] = tested on: acetyl CoA carboxylase (ACC); assay: ACC phosphorylation / activation downstream of AMPK (Western blotting); type: cell-based
Protocol: as §1

HSD17B4 = assay: Streptavidin-bead pull-down from LS174T cell lysates, validated by Western blot; type: binding
Protocol: (§2) Identification of the direct target of these AMPK activators involved incubation of 15d with LS174T cell lysates and a subsequent pull-down assay using biotinylated 15d bound to streptavidin beads. The binding proteins were eluted with 2.5 mM biotin and analyzed by 4-12% SDS-PAGE gel using colloidal blue staining (FIG. 2D). We identified two specific bands (F1 and F2) in the 15d-containing sample compared with the control samples containing only beads or only beads and biotin. These two bands were excised from gels and analyzed by NanoLC-ESI-MS/MS. The band F1 (FIG. 2D) contained two proteins: [1] peroxisomal hydroxysteroid 17-dehydrogenase-4 (HSD17B4); and [2] mitochondrial methylcrotonoyl-CoA carboxylase subunit alpha (MCCA). The band F2 also matched HSD17B4.
(§3) The multifunctional nature of HSD17B4 included two of the four enzymatic activities required for the beta-oxidation of very long-chain fatty acids (VLCFA) in the peroxisome. […] The HSD17B4 antibody (GeneTex) recognized the full-length and the C-terminal fragment (FIG. 2E).
(§4) Streptavidin-agarose pulldown: Biotinylated compound 15d (FIG. 2A) was incubated with cell lysates and streptavidin beads. The binding proteins were pulled down and analyzed by 4-12% SDS-PAGE as described previously. […]

MCCA = molecular target: T1, MCCA (Homo sapiens, UniProt Q96RQ3); assay: as above; type: binding
T1 construct: endogenous in cells; host or cells: LS174T colon cancer cells
T1 sequence (Q96RQ3 42-725): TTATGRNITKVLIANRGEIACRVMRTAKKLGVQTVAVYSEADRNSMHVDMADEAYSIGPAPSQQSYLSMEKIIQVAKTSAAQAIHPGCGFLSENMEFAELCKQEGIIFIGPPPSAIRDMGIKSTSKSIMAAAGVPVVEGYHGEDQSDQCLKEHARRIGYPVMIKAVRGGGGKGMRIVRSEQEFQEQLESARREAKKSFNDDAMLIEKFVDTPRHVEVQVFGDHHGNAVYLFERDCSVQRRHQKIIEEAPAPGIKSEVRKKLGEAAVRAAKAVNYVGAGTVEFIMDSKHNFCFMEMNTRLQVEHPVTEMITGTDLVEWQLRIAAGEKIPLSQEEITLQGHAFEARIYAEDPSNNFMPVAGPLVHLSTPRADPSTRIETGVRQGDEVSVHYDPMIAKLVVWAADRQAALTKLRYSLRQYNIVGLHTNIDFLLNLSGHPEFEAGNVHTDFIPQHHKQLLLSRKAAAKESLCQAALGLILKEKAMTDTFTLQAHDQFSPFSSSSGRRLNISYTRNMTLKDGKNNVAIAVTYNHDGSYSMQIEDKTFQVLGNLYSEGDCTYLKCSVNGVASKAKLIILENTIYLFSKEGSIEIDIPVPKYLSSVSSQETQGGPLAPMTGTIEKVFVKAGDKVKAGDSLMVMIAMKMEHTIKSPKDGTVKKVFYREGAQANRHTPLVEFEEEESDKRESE
Protocol: as §2, §3, §4

[2] = tested on: HSD17B4 (full-length and truncated constructs); assay: Streptavidin bead-based pull-down with purified full-length and truncated HSD17B4 constructs; type: binding; conditions: purified protein from E. coli
Text: (§5) We next sought to delineate if these cystisine-linked isoflavonoid inhibitors were selective for one of the two enzymatic activities, either the α,β-dehydrogenase or hydratase activity, found in HSD17B4. We generated a panel of truncated HSD17B4 constructs and purified these truncated proteins as well as the full-length protein from E. coli (FIG. 3A). We evaluated the binding of 15d to these constructs using the streptavidin bead-based pull-down assay.
(§6) Streptavidin-agarose pulldown: Biotinylated compound 15d (FIG. 2A) was incubated with cell lysates and streptavidin beads. The binding proteins were pulled down and analyzed by 4-12% SDS-PAGE as described previously. The protein bands were identified by NanoLC-ESI-MS/MS at ProtTech Inc. For binding and enzymatic assays, His-tagged HSD17B4 constructs were clone and truncated by PCR using pET28. The full-length and truncated proteins were purified from bacteria BL21.

[3] = molecular target: T2, HSD17B4 (full-length and truncated constructs) (Homo sapiens, UniProt P51659); assay: as above; type: binding; conditions: purified protein from E. coli
T2 construct: His-tag; made in house; host or cells: E. coli BL21 (pET28)
T2 sequence (P51659 1-736): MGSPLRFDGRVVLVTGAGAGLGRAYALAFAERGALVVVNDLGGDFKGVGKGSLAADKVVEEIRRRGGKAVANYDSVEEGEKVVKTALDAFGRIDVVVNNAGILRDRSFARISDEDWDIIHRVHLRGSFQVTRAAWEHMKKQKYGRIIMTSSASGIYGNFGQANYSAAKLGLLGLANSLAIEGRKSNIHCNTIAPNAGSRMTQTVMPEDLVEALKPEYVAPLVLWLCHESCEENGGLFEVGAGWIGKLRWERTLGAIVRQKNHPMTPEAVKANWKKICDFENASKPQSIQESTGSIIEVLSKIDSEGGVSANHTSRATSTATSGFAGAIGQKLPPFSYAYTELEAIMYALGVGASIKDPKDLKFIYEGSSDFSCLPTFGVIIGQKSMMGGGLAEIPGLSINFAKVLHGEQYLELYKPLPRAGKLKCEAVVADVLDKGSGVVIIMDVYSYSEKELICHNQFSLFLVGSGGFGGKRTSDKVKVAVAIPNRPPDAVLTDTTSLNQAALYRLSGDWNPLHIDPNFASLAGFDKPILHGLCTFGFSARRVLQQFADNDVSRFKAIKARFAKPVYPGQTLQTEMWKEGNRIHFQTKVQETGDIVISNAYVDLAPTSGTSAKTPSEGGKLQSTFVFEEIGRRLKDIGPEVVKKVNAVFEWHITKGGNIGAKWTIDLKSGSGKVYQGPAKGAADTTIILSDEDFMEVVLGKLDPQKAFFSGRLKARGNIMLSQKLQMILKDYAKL
Text: as §5, §6

O=c1c(-c2ccc(Cl)cc2)coc2cc(O)ccc12 [Compound 3c, 3-(4-Chlorophenyl)-7-hydroxy-4H-chromen-4-one]
AMPK activation (in words) (AMPK): most active AMPK activators
activation of acetyl CoA carboxylase [1]: modest activation

Cc1oc2cc(O)ccc2c(=O)c1-c1ccc(Cl)cc1 [Compound 3d, 3-(4-Chlorophenyl)-7-hydroxy-2-methyl-4H-chromen-4-one]
AMPK activation (in words) (AMPK): most active AMPK activators
melting point: 277 to 278 °C
activation of acetyl CoA carboxylase [1]: modest activation

O=c1c(-c2ccccc2)coc2cc(OCCN3C[C@@H]4C[C@H](C3)c3cccc(=O)n3C4)ccc12 [Compound 10a, (1R,5S)-3-(2-((4-Oxo-3-phenyl-4H-chromen-7-yl)oxy)ethyl)-3,4,5,6-tetrahydro-1H-1,5-methanopyrido[1,2-a][1,5]diazocin-8(2H)-one]
AMPK-fold Activation (10 μM) (AMPK): 3.6 fold
melting point: 197 to 198 °C

COc1ccc(-c2coc3cc(OCCN4C[C@@H]5C[C@H](C4)c4cccc(=O)n4C5)ccc3c2=O)cc1 [Compound 10b, (1R,5S)-3-(2-((3-(4-Methoxyphenyl)-4-oxo-4H-chromen-7-yl)oxy)ethyl)-3,4,5,6-tetrahydro-1H-1,5-methanopyrido[1,2-a][1,5]diazocin-8(2H)-one]
AMPK-fold Activation (10 μM) (AMPK): 9.9 fold

Cc1oc2cc(OCCN3C[C@@H]4C[C@H](C3)c3cccc(=O)n3C4)ccc2c(=O)c1-c1ccc(Cl)cc1 [Compound 10d, (1R,5S)-3-(2-((3-(4-Chlorophenyl)-2-methyl-4-oxo-4H-chromen-7-yl)oxy)ethyl)-3,4,5,6-tetrahydro-1H-1,5-methanopyrido[1,2-a][1,5]diazocin-8(2H)-one]
AMPK-fold Activation (10 μM) (AMPK): 2.2 fold
melting point: 186 to 187 °C

Cc1oc2cc(OCCCCC(CN3C[C@@H]4C[C@@H](C3)c3cccc(=O)n3C4)=NNC(=O)CCOCCOCCOCCOCCNC(=O)CCCC[C@@H]3SCC4NC(=O)NC43)ccc2c(=O)c1-c1ccc(Cl)cc1 (stereo partly drawn) [Compound 15d, N-(22-((3-(4-chlorophenyl)-2-methyl-4-oxo-4H-chromen-7-yl)oxy)-15-oxo-18-(((1S,5S)-8-oxo-1,5,6,8-tetrahydro-2H-1,5-methanopyrido[1,2-a][,5]diazocin-3(4H)-yl)methyl)-3,6,9,12-tetraoxa-16,17-diazadocos-17-en-1-yl)-5-((4S)-2-oxohexahydro-1H-thieno[3,4-d]imidazol-4-yl)pentanamide]
binding of HSD17B4 in pull-down (HSD17B4): specific binding protein
binding of MCCA in pull-down (MCCA): non-specific binding protein
binding to N-terminus-truncated fragment C919 [2]: strongly bound
interaction with C-terminus-truncated fragment N634 [2]: not the C-terminus-truncated fragments N318 and N634, interacted
interaction with full-length HSD17B4 [3]: interacted

O=c1cccc2n1C[C@H]1C[C@H]2CN(CC(O)CCCCOc2ccccc2)C1 (stereo partly drawn) [Compound 16, (1S,5S)-3-(2-Hydroxy-6-phenoxyhexyl)-3,4,5,6-tetrabydro-1H-1,5-methanopyrido[1,2-a][1,5]diazocin-8(2H)-one]
AMPK activation (in words) (AMPK): inactive

O=C(CCCCOc1ccccc1)CN1C[C@@H]2C[C@@H](C1)c1cccc(=O)n1C2 [Compound 17, (1S,5S)-3-(2-oxo-6-phenoxyhexyl)-3,4,5,6-tetrahydro-1H-1,5-methanopyrido[1,2-a][1,5]diazocin-8(2H)-one]
AMPK activation (in words) (AMPK): inactive
